# Source: PMC2999460, “Porphobilinogen Synthase from the Butterfly, Pieris brassicae: Purification and Comparative Characterization” (2007)
# T1: porphobilinogen synthase (PBGS) (Pieris brassicae, UniProt A0A9P0XHI4)
# T1 construct: gene PIBRA_LOCUS11261
# T1 sequence (A0A9P0XHI4 1-333): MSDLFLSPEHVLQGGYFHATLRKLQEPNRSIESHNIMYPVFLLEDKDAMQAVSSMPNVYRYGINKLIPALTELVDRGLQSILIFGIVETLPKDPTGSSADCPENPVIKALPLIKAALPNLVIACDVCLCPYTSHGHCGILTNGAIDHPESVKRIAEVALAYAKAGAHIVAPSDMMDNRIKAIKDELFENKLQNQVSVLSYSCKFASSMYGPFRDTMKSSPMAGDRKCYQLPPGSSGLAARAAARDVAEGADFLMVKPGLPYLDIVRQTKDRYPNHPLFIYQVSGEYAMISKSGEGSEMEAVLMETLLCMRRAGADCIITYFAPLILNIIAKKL
# Legend:
# [1] = molecular target: T1, porphobilinogen synthase (PBGS); experiment: biochemical
# [2] = molecular target: T1, porphobilinogen synthase (PBGS); experiment: enzyme activity assay (PBG formation, Ehrlich's reagent, […] nm), Lineweaver-Burk analysis; assay type: biochemical
# [3] = molecular target: porphobilinogen synthase (PBGS) from Pieris brassicae (Pieris brassicae (endogenous in adult insects)); experiment: native gel or EMSA; native PAGE at 4.5, 6.0, 7.5 and 9.75% polyacrylamide (Hedrick and Smith; buffer system of Davis) with reference proteins: 292.3 kDa for the holoenzyme, set against 36.5 kDa for the subunit by SDS/urea-PAGE; purified PBGS and a partially purified preparation
# [4] = substrate: NCC(=O)CCC(=O)O; experiment: purified protein; settings: zinc active site
molecule,measurement,setting,value
"CC(=O)CCC(=O)O [LA, levulinic acid]",Ki,[1],340 µM
"CC(=O)CC(=O)CCC(=O)O [SA, 4,6-dioxo-heptanoic acid]",IC50,[2],4.5 µM
porphobilinogen synthase (PBGS) from Pieris brassicae (enzyme),stoichiometry N,[3],8
porphobilinogen synthase (PBGS) (Pieris brassicae) (protein) MSDLFLSPEHVLQGGYFHATLRKLQEPNRSIESHNIMYPVFLLEDKDAMQAVSSMPNVYRYGINKLIPALTELVDRGLQSILIFGIVETLPKDPTGSSADCPENPVIKALPLIKAALPNLVIACDVCLCPYTSHGHCGILTNGAIDHPESVKRIAEVALAYAKAGAHIVAPSDMMDNRIKAIKDELFENKLQNQVSVLSYSCKFASSMYGPFRDTMKSSPMAGDRKCYQLPPGSSGLAARAAARDVAEGADFLMVKPGLPYLDIVRQTKDRYPNHPLFIYQVSGEYAMISKSGEGSEMEAVLMETLLCMRRAGADCIITYFAPLILNIIAKKL,Km,[4],360 µM
